Measurements: ChEMBL document CHEMBL3885881, “DrugMatrix”

Species on record: Rattus norvegicus
Experiment: DrugMatrix - Regimen: Daily Repeat
Assay type: toxicity, organism-based, Sprague-Dawley
Parameters: regimen Daily Repeat, gender Male, age 6-8 weeks
Conditions: in vivo, po, route oral GAVAGE, vehicle .5 % CMC; for ABSOLUTE BASOPHIL / ABSOLUTE EOSINOPHIL / ABSOLUTE LYMPHOCYTE / ABSOLUTE MONOCYTE / ABSOLUTE SEGMENTED NEUTROPHIL / BASOPHIL / EOSINOPHIL / ERYTHROCYTE COUNT / HEMATOCRIT / HEMOGLOBIN / LEUKOCYTE COUNT / LYMPHOCYTE / MEAN CORPUSCULAR HEMOGLOBIN / MEAN CORPUSCULAR HEMOGLOBIN CONCENTRATION / MEAN CORPUSCULAR VOLUME / MONOCYTE / NEUTROPHIL / NUCLEATED RED BLOOD CELLS / PLATELET COUNT: tissue Blood; for ALANINE AMINOTRANSFERASE / ALBUMIN / ASPARTATE AMINOTRANSFERASE / BLOOD UREA NITROGEN / CARBON DIOXIDE / CHLORIDE / CHOLESTEROL / CREATINE PHOSPHOKINASE / CREATININE / GLUCOSE / LACTATE DEHYDROGENASE / LIPASE / POTASSIUM / SODIUM / TOTAL BILIRUBIN / TOTAL PROTEIN / URIC ACID: tissue Plasma
[1] = 47 mg/kg, 72 h, dose level Low, time 3 day
[2] = 47 mg/kg, 120 h, dose level Low, time 5 day
[3] = 500 mg/kg, 72 h, dose level High, time 3 day
[4] = 500 mg/kg, 120 h, dose level High, time 5 day

OCCOCCN1CCN(C2=Nc3ccccc3Sc3ccccc32)CC1 [QUETIAPINE]
ABSOLUTE BASOPHIL [1]: 0 CELLS/uL | ABSOLUTE EOSINOPHIL [1]: 0 CELLS/uL | ABSOLUTE LYMPHOCYTE [1]: 7521.33 CELLS/uL | ABSOLUTE MONOCYTE [1]: 22.33 CELLS/uL | ABSOLUTE SEGMENTED NEUTROPHIL [1]: 789.67 CELLS/uL | BASOPHIL [1]: 0% | EOSINOPHIL [1]: 0% | ERYTHROCYTE COUNT [1]: 5.57 x10E6/uL | HEMATOCRIT [1]: 34.3% | HEMOGLOBIN [1]: 13.87 G/DL | LEUKOCYTE COUNT [1]: 8.33 x10E3/uL | LYMPHOCYTE [1]: 90.33% | MEAN CORPUSCULAR HEMOGLOBIN [1]: 24.93 pg | MEAN CORPUSCULAR HEMOGLOBIN CONCENTRATION [1]: 40.43 G/DL | MEAN CORPUSCULAR VOLUME [1]: 61.7 fL | MONOCYTE [1]: 0.33% | NEUTROPHIL [1]: 9.33% | NUCLEATED RED BLOOD CELLS [1]: 0.33 /100WBC | PLATELET COUNT [1]: 1115.67 x10E3/uL | ALANINE AMINOTRANSFERASE [1]: 48.33 u/L | ALBUMIN [1]: 4.63 G/DL | ASPARTATE AMINOTRANSFERASE [1]: 64.67 u/L | BLOOD UREA NITROGEN [1]: 15.33 mg/dL | CARBON DIOXIDE [1]: 31 mmol/L | CHLORIDE [1]: 101 MEQ/L | CHOLESTEROL [1]: 78.33 mg/dL | CREATINE PHOSPHOKINASE [1]: 126.33 u/L | CREATININE [1]: 0.17 mg/dL | GLUCOSE [1]: 143.33 mg/dL | LACTATE DEHYDROGENASE [1]: 116.33 u/L | LIPASE [1]: 12 u/L | POTASSIUM [1]: 6.23 MEQ/L | SODIUM [1]: 148.9 MEQ/L | TOTAL BILIRUBIN [1]: 0.2 mg/dL | TOTAL PROTEIN [1]: 6.03 G/DL | URIC ACID [1]: 1.03 mg/dL | ABSOLUTE BASOPHIL [2]: 0 CELLS/uL | ABSOLUTE EOSINOPHIL [2]: 0 CELLS/uL | ABSOLUTE LYMPHOCYTE [2]: 13853.67 CELLS/uL | ABSOLUTE MONOCYTE [2]: 281 CELLS/uL | ABSOLUTE SEGMENTED NEUTROPHIL [2]: 1032 CELLS/uL | BASOPHIL [2]: 0% | EOSINOPHIL [2]: 0% | ERYTHROCYTE COUNT [2]: 6.08 x10E6/uL | HEMATOCRIT [2]: 38.03% | HEMOGLOBIN [2]: 15.07 G/DL | LEUKOCYTE COUNT [2]: 15.17 x10E3/uL | LYMPHOCYTE [2]: 91.33% | MEAN CORPUSCULAR HEMOGLOBIN [2]: 24.83 pg | MEAN CORPUSCULAR HEMOGLOBIN CONCENTRATION [2]: 39.6 G/DL | MEAN CORPUSCULAR VOLUME [2]: 62.6 fL | MONOCYTE [2]: 2% | NEUTROPHIL [2]: 6.67% | NUCLEATED RED BLOOD CELLS [2]: 0 /100WBC | PLATELET COUNT [2]: 1335.33 x10E3/uL | ALANINE AMINOTRANSFERASE [2]: 39.33 u/L | ALBUMIN [2]: 4.63 G/DL | ASPARTATE AMINOTRANSFERASE [2]: 90.67 u/L | BLOOD UREA NITROGEN [2]: 20 mg/dL | CARBON DIOXIDE [2]: 25 mmol/L | CHLORIDE [2]: 96.67 MEQ/L | CHOLESTEROL [2]: 61.33 mg/dL | CREATINE PHOSPHOKINASE [2]: 403.67 u/L | CREATININE [2]: 0.22 mg/dL | GLUCOSE [2]: 148 mg/dL | LACTATE DEHYDROGENASE [2]: 287 u/L | LIPASE [2]: 9.33 u/L | POTASSIUM [2]: 7.45 MEQ/L | SODIUM [2]: 142.07 MEQ/L | TOTAL BILIRUBIN [2]: 0.13 mg/dL | TOTAL PROTEIN [2]: 6.67 G/DL | URIC ACID [2]: 2.17 mg/dL | ABSOLUTE BASOPHIL [3]: 0 CELLS/uL | ABSOLUTE EOSINOPHIL [3]: 0 CELLS/uL | ABSOLUTE LYMPHOCYTE [3]: 9655.67 CELLS/uL | ABSOLUTE MONOCYTE [3]: 233.67 CELLS/uL | ABSOLUTE SEGMENTED NEUTROPHIL [3]: 577.33 CELLS/uL | BASOPHIL [3]: 0% | EOSINOPHIL [3]: 0% | ERYTHROCYTE COUNT [3]: 5.61 x10E6/uL | HEMATOCRIT [3]: 34.93% | HEMOGLOBIN [3]: 14.17 G/DL | LEUKOCYTE COUNT [3]: 10.47 x10E3/uL | LYMPHOCYTE [3]: 92.67% | MEAN CORPUSCULAR HEMOGLOBIN [3]: 25.27 pg | MEAN CORPUSCULAR HEMOGLOBIN CONCENTRATION [3]: 40.53 G/DL | MEAN CORPUSCULAR VOLUME [3]: 62.27 fL | MONOCYTE [3]: 2% | NEUTROPHIL [3]: 5.33% | NUCLEATED RED BLOOD CELLS [3]: 0 /100WBC | PLATELET COUNT [3]: 1122.67 x10E3/uL | ALANINE AMINOTRANSFERASE [3]: 50.33 u/L | ALBUMIN [3]: 4.3 G/DL | ASPARTATE AMINOTRANSFERASE [3]: 75 u/L | BLOOD UREA NITROGEN [3]: 16.67 mg/dL | CARBON DIOXIDE [3]: 26.33 mmol/L | CHOLESTEROL [3]: 46.67 mg/dL | CREATINE PHOSPHOKINASE [3]: 448 u/L | CREATININE [3]: 0.21 mg/dL | GLUCOSE [3]: 138 mg/dL | LACTATE DEHYDROGENASE [3]: 232.33 u/L | LIPASE [3]: 8 u/L | POTASSIUM [3]: 6.14 MEQ/L | SODIUM [3]: 143.73 MEQ/L | TOTAL BILIRUBIN [3]: 0.23 mg/dL | TOTAL PROTEIN [3]: 5.57 G/DL | URIC ACID [3]: 1.33 mg/dL | ABSOLUTE BASOPHIL [4]: 0 CELLS/uL | ABSOLUTE EOSINOPHIL [4]: 0 CELLS/uL | ABSOLUTE LYMPHOCYTE [4]: 15536 CELLS/uL | ABSOLUTE MONOCYTE [4]: 318.67 CELLS/uL | ABSOLUTE SEGMENTED NEUTROPHIL [4]: 1612 CELLS/uL | BASOPHIL [4]: 0% | EOSINOPHIL [4]: 0% | ERYTHROCYTE COUNT [4]: 6.23 x10E6/uL | HEMATOCRIT [4]: 37.83% | HEMOGLOBIN [4]: 15.17 G/DL | LEUKOCYTE COUNT [4]: 17.47 x10E3/uL | LYMPHOCYTE [4]: 89% | MEAN CORPUSCULAR HEMOGLOBIN [4]: 24.33 pg | MEAN CORPUSCULAR HEMOGLOBIN CONCENTRATION [4]: 40.1 G/DL | MEAN CORPUSCULAR VOLUME [4]: 60.67 fL | MONOCYTE [4]: 1.67% | NEUTROPHIL [4]: 9.33% | NUCLEATED RED BLOOD CELLS [4]: 0 /100WBC | PLATELET COUNT [4]: 1152.33 x10E3/uL | ALANINE AMINOTRANSFERASE [4]: 50.33 u/L | ALBUMIN [4]: 4.37 G/DL | ASPARTATE AMINOTRANSFERASE [4]: 71 u/L | BLOOD UREA NITROGEN [4]: 20 mg/dL | CARBON DIOXIDE [4]: 25 mmol/L | CHLORIDE [4]: 103 MEQ/L | CHOLESTEROL [4]: 56.67 mg/dL | CREATINE PHOSPHOKINASE [4]: 184.33 u/L | CREATININE [4]: 0.29 mg/dL | GLUCOSE [4]: 154 mg/dL | LACTATE DEHYDROGENASE [4]: 150.67 u/L | LIPASE [4]: 8.67 u/L | POTASSIUM [4]: 6.89 MEQ/L | SODIUM [4]: 145 MEQ/L | TOTAL BILIRUBIN [4]: 0.2 mg/dL | TOTAL PROTEIN [4]: 6.13 G/DL | URIC ACID [4]: 2.13 mg/dL
